Test results as given in patent US4578498A, “Phenylethylene derivatives and their use as drugs” (BASF Aktiengesellschaft, priority 1982, dated 1986).
Read-outs that look alike come from different tables or passages of the source.

What was measured:
[1] = test system: utriculi in the Rhino mouse; assay: Reduction of the number of utriculi in the Rhino mouse model; format: in vivo, Rhino mice; details: for inhibition in vivo at 0.1 % / inhibition in vivo at 0.2 %: read-out: Decrease in % (number of utriculi / cysts)
comedos = assay: Comedolytic activity on tar-induced comedos of rabbit ears; format: in vivo, albino rabbits; details: Oryctolagus cuniculus, 336 h, topical, read-out: Comedolytic activity in % (decrease in number of comedos vs control ear)
Description: The development of comedos was induced by one topical application of 0.5 ml per day, onto both ears of albino rabbits, of 5% of tar in Polyan® (ester of lanolin alcohol and linolenic acid, produced by Amerchol Corp., U.S.A.), the application being carried out on 5 successive days per week over a period of two weeks. Thereafter, the test substances in ethanol/propylene glycol (70:30, v/v, 0.5 ml) were applied topically onto the inner skin area of one ear of each rabbit once per day on 5 successive days per week over a period of two weeks. The second ear of each animal served as an untreated control.
After further treatment for 72 hours with the test substance, the rabbits were sacrificed. A skin sample of about 6 cm^2 was taken from each auricle just outside the oratory passage, and this sample was divided into sections of about 1 cm^2. These pieces of skin were immersed for 2 minutes in warm water at 60° C. The epidermis was carefully peeled off using the flat end of a spatula and a small forceps, and was placed, dermal side up, on the slide. After drying in air overnight, the test strips were assessed under a stereomicroscope. […] The comedos were recognizable as discrete, cylindrical to round keratose particles which were of similar appearance and whose size and number were proportional to the activity of the test substance. The comedolytic effect was determined as the decrease in the number of comedos, in %, compared with the control ear (cf. Table 2).

tracheal epithelium = assay: Elimination of keratinization in tracheal cultures (antitumor action); format: cell-based, hamster; details: Mesocricetus auratus, 240 h
Text: The test model is used to determine the intrinsic property of the novel compounds of increasing the differentiation of epithelial cells. The great significance of this screening method in predicting the potential use of a new retinoid for the prevention of tumors in epithelial tissue is generally recognized. Moreover, it is known that every in vitro test system has disadvantages in respect of the prediction of in vivo activity. Apart from these basic restrictions, tracheal cell cultures are one of the most useful methods of determining the biological activity of novel retinoids.
The ability of the test substances to eliminate keratinization in a defined in vitro system was determined. Tracheae of hamsters at a very early stage of vitamin A deficiency were used for culture. […] Their average weight was from 47 to 52 g. The tracheal epithelium was in general slightly columnar or pavement-like and had only isolated areas of squamous metaplasia. Each trachea was opened along the membrane-like dorsal wall, from the larynx to the carina, and cultured in a serum-free medium (CMRL-1066 supplemented by 1.0 μg/ml of crystalline bovine insulin, 0.1 μg/ml of hydrocortisone hemisuccinate, 2mM of glutamine, 100 units/ml of penicillin and 100 μg/ml of streptomycin). The cultures were aerated with a mixture of 50% of oxygen, 45% of nitrogen and 5% of carbon dioxide, and the culture dishes were shaken gently to bring the tracheae into contact with the gas and the culture medium. All tracheae were initially kept for 3 days in the culture medium without the addition of retinoid. After this period, some tracheae were removed. […] The remaining tracheae were divided into groups, which were then treated with the following additives:
(a) The test substance dissolved in spectroscopically pure dimethylsulfoxide (the final concentration of dimethylsulfoxide in the culture medium was never greater than 0.1%).
(b) An equivalent amount of dimethylsulfoxide without a further additive.
The nutrient medium was changed three times per week. After culture for 10 days, the remaining tracheae were worked up by being fixed in 10% strength buffered formaldehyde solution and embedded in paraffin. […] Dose-effect curves of the novel compounds were recorded. Table 1 below gives the extrapolated molar doses which suppress keratinization in half the cultures (ED 50%).

[2] = test system: white male New Zealand rabbits; details: rabbit, in vivo
Description: 5. The toleration of the test substances after topical administration was determined in experiments with 6 white male New Zealand rabbits in each case. In the case of each test animal, an area of about 6 cm^2 on the back was shaved. The test substances were dissolved in ethanol/propylene glycol (70:30, v/v), and 0.2 ml of this solution was applied with an automatic micropipette on 9 successive days by carefully rubbing the solution into a particular point twice daily at 6-hour intervals.
Before each application in the morning, all test areas were assessed subjectively in respect of erythemas and scaling, a numerical scale from 0 to 3 being employed (0=no reaction, 1=mild, 2=moderate and 3=severe). The average erythema formation and scaling gives the relative irritant level of the test substances in comparison with vitamin A acid.

[3] = test system: leukemia cells of patients having promyelocytic leukemia; assay: Induction of cell differentiation in promyelocytic leukemia cells; format: cell-based, human (patients)
[4] = concentration 0.1%, Rhino mouse
[5] = concentration 0.1%, rabbit ear, two weeks
[6] = hamster tracheal culture, 10 days, serum-free, extrapolated from dose-effect curves, read-out: ED50 (molar dose which suppresses keratinization in half the cultures) (converted)
[7] = concentration 0.2%, Rhino mouse

In the case of `CCOC(=O)c1ccc(/C=C(\C)c2cc3c(cc2C)C(C)(C)CCC3(C)C)cc1` [Example 1, Ethyl E-4-[2-methyl-2-(1,1,4,4,6-pentamethyl-1,2,3,4-tetrahydronaphth-7-yl)-vinyl]-benzoate], the inhibition in vivo at 0.1 % [1, 4] is reported as 65% and the inhibition in vivo at 0.1 % (comedos; [5]) is reported as 75%.

In the case of `C/C(=C\c1ccc(C(=O)O)cc1)c1cc2c(cc1C)C(C)(C)CCC2(C)C` [Example 2, E-4-[2-methyl-2-(1,1,4,4,6-pentamethyl-1,2,3,4-tetrahydronaphth-7-yl)-vinyl]-benzoic acid], the IC50 (tracheal epithelium; [6]) is reported as 10 pM, the Erythema [2] is reported as 2.8 and the Scaling [2] is reported as 2.7. The inhibition in vivo at 0.1 % [1, 4] was 68%, the “induction of cell differentiation to give mature granulocytes” value [3] was “induce cell differentiation to give mature granulocytes” and the inhibition in vivo at 0.1 % (comedos; [5]) was 73%.

For `CCc1cc2c(cc1/C(C)=C/c1ccc(C(=O)O)cc1)C(C)(C)CCC2(C)C` [Example 5, E4-[2-methyl-2-(1,1,4,4-tetramethyl-6-ethyl-1,2,3,4-tetrahydronaphth-7-yl)-vinyl]-benzoic acid], the Erythema [2] was 2.0, the Scaling [2] was 1.7 and the inhibition in vivo at 0.1 % [1, 4] was 69%. For the same compound, the inhibition in vivo at 0.1 % (comedos; [5]) was 54%.

`CCOC(=O)c1ccc(/C=C(\C)c2cc3c(cc2C(C)C)C(C)(C)CCC3(C)C)cc1` [Example 6, Ethyl E4-[2-methyl-2-(1,1,4,4-tetramethyl-6-isopropyl-1,2,3,4-tetrahydronaphth-7-yl)-vinyl]-benzoate] gave an inhibition in vivo at 0.1 % [1, 4] of 59% and an inhibition in vivo at 0.1 % (comedos; [5]) of 68%.

`C/C(=C\c1ccc(C(=O)O)cc1)c1cc2c(cc1C(C)C)C(C)(C)CCC2(C)C` [Example 7, E4-[2-methyl-2-(1,1,4,4-tetramethyl-6-isopropyl-1,2,3,4-tetrahydronaphth-7-yl)-vinyl]benzoic acid] was tested, and the IC50 (tracheal epithelium; [6]) was 10 pM, the Erythema [2] was 3.0 and the Scaling [2] was 3.0. For the same compound, the inhibition in vivo at 0.1 % [1, 4] was 62% and the inhibition in vivo at 0.1 % (comedos; [5]) was 59%.

In the case of `C/C(=C\c1ccc(C(=O)O)cc1)c1cc2c(cc1CC(C)C)C(C)(C)CCC2(C)C` [Example 8, E4-[2-methyl-2-(1,1,4,4-tetra-methyl-6-(2-methylpropyl)-1,2,3,4-tetrahydronaphth-7-yl)-vinyl]-benzoic acid], the Erythema [2] is reported as 1.4, the Scaling [2] is reported as 1.0 and the inhibition in vivo at 0.1 % [1, 4] is reported as 52%. For the same compound, the inhibition in vivo at 0.1 % (comedos; [5]) was 62%.

`C/C(=C/c1ccc(C(=O)O)cc1)c1cc2c(cc1C)C(C)(C)CCC2(C)C` [Example 10, Z4-[2-methyl-2-(1,1,4,4,6-pentamethyl-1,2,3,4-tetrahydronaphth-7-yl)-vinyl]-benzoic acid] was tested, and the inhibition in vivo at 0.1 % [1, 4] was 49% and the inhibition in vivo at 0.1 % (comedos; [5]) was 31%.

`CCCc1cc2c(cc1/C(C)=C/c1ccc(C(=O)O)cc1)C(C)(C)CCC2(C)C` [Example 11, E4-[2-methyl-2-(1,1,4,4-tetramethyl-6-propyl-1,2,3,4-tetrahydronaphth-7-yl)-vinyl]-benzoic acid] gave an inhibition in vivo at 0.1 % [1, 4] of 59% and an inhibition in vivo at 0.1 % (comedos; [5]) of 40%.

`CCCCc1cc2c(cc1/C(C)=C/c1ccc(C(=O)O)cc1)C(C)(C)CCC2(C)C` [Example 14, E4-[2-methyl-2-(1,1,4,4-tetramethyl-6-n-butyl-1,2,3,4-tetrahydronaphth-7-yl)-vinyl]-benzoic acid] was tested, and the inhibition in vivo at 0.1 % [1, 4] was 64% and the inhibition in vivo at 0.1 % (comedos; [5]) was 79%.

In the case of `CCCCCCCCc1cc2c(cc1/C(C)=C/c1ccc(C(=O)O)cc1)C(C)(C)CCC2(C)C` [Example 15, E4-[2-methyl-2-(1,1,4,4-tetramethyl-6-n-octyl-1,2,3,4-tetrahydronaphth-7-yl)-vinyl]-benzoic acid], the inhibition in vivo at 0.1 % [1, 4] is reported as 59% and the inhibition in vivo at 0.1 % (comedos; [5]) is reported as 59%.

`C/C(=C/c1ccc(C(=O)O)cc1)c1cc2c(cc1CC(C)C)C(C)(C)CCC2(C)C` [Example 17, Z4-[2-methyl-2-(1,1,4,4-tetramethyl-6-(2-methylpropyl)-1,2,3,4-tetrahydronaphth-7-yl)-vinyl]-benzoic acid] was tested, and the inhibition in vivo at 0.2 % [1, 7] was 62% and the inhibition in vivo at 0.2 % (comedos; concentration 0.2%, rabbit ear, two weeks) was 56%.

In the case of `C/C(=C\c1ccc(C(=O)O)cc1)c1cc2c(cc1CC(C)C)C(C)(C)C(C)C2(C)C` (centres unmarked) [Example 18, E4-[2-methyl-2-(1,1,2,3,3-pentamethyl-5-(2-methylpropyl)-indan-6-yl)-vinyl]-benzoic acid], the inhibition in vivo at 0.2 % [1, 7] is reported as 42%.

In the case of `CCOC(=O)c1ccc(/C=C(\C)c2cc3c(cc2CC(C)C)C(C)(C)CCC3(C)C)cc1` [Example 19, ethyl E4-[2-methyl-2-(1,1,4,4-tetramethyl-6-(2-methylpropyl)-1,2,3,4-tetrahydronaphth-7-yl)-vinyl]-benzoate], the inhibition in vivo at 0.1 % [1, 4] is reported as 12%.

`COC(=O)c1ccc(/C=C(\C)c2cc3c(cc2CC(C)C)C(C)(C)CCC3(C)C)cc1` [Example 20, methyl E4-[2-methyl-2-(1,4,4-tetramethyl-6-(2-methylpropyl)-1,2,3,4-tetrahydronaphth-7-yl)-vinyl]-benzoate] gave an inhibition in vivo at 0.1 % [1, 4] of 6%.

`C/C(=C\c1ccc(C(=O)O)cc1)c1cc2c(cc1CCC(C)C)C(C)(C)CCC2(C)C` [Example 23, E4-[2-methyl-2-(1,1,4,4-tetra-methyl-6-(3-methylbutyl)-1,2,3,4-tetrahydronaphth-7-yl)-vinyl]-benzoic acid] was tested, and the inhibition in vivo at 0.2 % [1, 7] was 62%.

In the case of `CCCCCCCCc1cc2c(cc1/C(C)=C/c1ccc(C(=O)O)cc1)C(C)(C)C(C)C2(C)C` (centres unmarked) [Example 24, E4-[2-methyl-2-(1,1,2,3,3-pentamethyl-5-n-octyl-indan-6-yl)-vinyl]-benzoic acid], the “Decrease in % (number of utriculi / cysts)” value [1, 7] is reported as 42%.

In the case of `C/C(=C\c1ccc(C(=O)O)cc1)c1cc2c(cc1CCC(C)C)C(C)(C)C(C)C2(C)C` (centres unmarked) [Example 25, E4-[2-methyl-2-(1,1,2,3,3-pentamethyl-5-(3-methylbutyl)-indan-6-yl)-vinyl]-benzoic acid], the inhibition in vivo at 0.2 % [1, 7] is reported as 60%.

`C/C(=C\c1ccc(C(=O)Nc2ccc(O)cc2)cc1)c1ccc2c(c1)C(C)(C)CCC2(C)C` [Example 31, E-4-[2-methyl-2-(1,1,4,4-tetramethyl-1,2,3,4-tetrahydronaphth-7-yl)-vinyl]-benzoic acid 4-hydroxyanilide] was tested, and the IC50 (tracheal epithelium; [6]) was 3 pM.

For `C/C(=C\c1ccc(C(=O)Nc2ccc(O)cc2)cc1)c1ccc2c(c1)C(C)(C)C(C)C2(C)C` (centres unmarked) [Example 32, E-4-[2-methyl-2-(1,1,2,3,3-pentamethylindan-6-yl)-vinyl]-benzoic acid 4-ydroxyanilide], the IC50 (tracheal epithelium; [6]) was 1 pM.

`C/C(=C\c1ccc(C(=O)Nc2nnn[nH]2)cc1)c1ccc2c(c1)C(C)(C)C(C)C2(C)C` (centres unmarked) [Example 40, E-4-[2-methyl-2-(1,1,2,3,3,- pentamethylindan-6-yl)-vinyl]-N(tetrazol-5-yl)-benzamide] showed an IC50 (tracheal epithelium; [6]) of 1 pM.

For `CC1=C(/C=C/C(C)=C/C=C/C(C)=C/C(=O)O)C(C)(C)CCC1` [Vitamin A acid, reference compound], the IC50 (tracheal epithelium; read-out: ED50 (molar dose which suppresses keratinization in half the cultures)) was 10 pM, the Erythema [2] was 3.0 and the Scaling [2] was 3.0. It also gave an inhibition in vivo at 0.1 % ([1]; Mus musculus) of 60% and an inhibition in vivo at 0.1 % (comedos) of 67%.
